Source: patent publication US20060229364A1, “Antiviral compositions and methods of use” (3M Innovative Properties Company, priority 2005, published 2006)

System: Type 1 herpes virus
Test: Another mouse study with neat ester (Example 4), treatment from 24 hours post-virus inoculum
Format: in vivo, mice
Details: neat composition applied 24 hours post-virus inoculum, 3 times daily for 5 days
Text: Each lesion was assigned a score ranging from 0 (normal skin) to 4 (maximal lesion intensity) defined as “Lesion score”, and two measurements, a vertical length and a horizontal length, were taken of each lesion daily from days 1 through 10. These measurements were multiplied together and the “square area” recorded, defined as “Lesion Size”. The lesion scoring was done by technicians who are unaware of which group of animals they are examining in order to eliminate bias. The occurrence of new, satellite, lesions (e.g., another lesion located anywhere other than the site of the intial lesion) were also noted during this 10-day period. The mean of the lesions score and the lesions size was calculated based on the average of the measurements taken on the eight mice.
Another mouse study was performed using propylene glycol monolaurate (Capmul PG-12) in a neat composition. The ester was applied 24 hours post-virus inoculum 3 times daily for 5 days. […] The mean day 7 lesion size was 3.1 mm2 compared to 64.4 mm2 for petrolatum vehicle control. The day 7 mean lesion score was 0.2 compared to 1.5 for a control sample containing petrolatum without an antimicrobial.

## propylene glycol monolaurate
  day 7 mean lesion score: 0.2
  mean day 7 lesion size: 3.1 mm2
  reduction in lesion score and size compared to a placebo ointment (in words): statistically significant reduction
